Consider 4 compounds from patent US12077503B2, “Substituted cyclic amides and their use as herbicides” (FMC CORPORATION, priority 2015, dated 2024).

Assay in all cases: Test G Pre-Emergence Protocol
Common to all, as to format: in vivo

Assay [1] has as its system barnyardgrass (Echinochloa crus-galli). The note with it: Echinochloa crus-galli, pre-emergence, 312 h, evaluated after 13 days; for pest or weed control at 15.625 g/ha: 15.625 g ai/ha, read-out: Barnyard grass damage rating (100=total damage to plant; 0=no damage to plant); for pest or weed control at 62.5 g/ha: 62.5 g ai/ha, 100=total damage to plant, 0=no damage to plant, read-out: plant damage rating, Barnyardgrass; for pest or weed control at 250 g/ha: 250 g ai/ha, read-out: Barnyardgrass damage rating (100=total damage to plant; 0=no damage to plant). The gist of the method: (§1)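 Under a 24/16° C day/night regime with 14 h light and 65% humidity, sown pots were sprayed after one day with compound (15.625, 62.5 or 250 g/ha; 50:50 acetone/water, 0.5% Tween 20). Damage was assessed visually 13 days later, 0 to 100.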

The next assay deals with corn (Zea mays). The note with it: Zea mays, pre-emergence, 312 h, evaluated after 13 days; for plant injury at 15.625 g/ha: 15.625 g ai/ha; for plant injury at 15.625 g/ha / plant injury at 250 g/ha: read-out: Corn damage rating (100=total damage to plant; 0=no damage to plant); for plant injury at 62.5 g/ha: 62.5 g ai/ha, 100=total damage to plant, 0=no damage to plant, read-out: plant damage rating, Corn; for plant injury at 250 g/ha: 250 g ai/ha. The gist of the method: as §1

Assay [2] deals with giant foxtail (Setaria faberi). The note with it: Setaria faberi, pre-emergence, 312 h, evaluated after 13 days; for pest or weed control at 15.625 g/ha: 15.625 g ai/ha; for pest or weed control at 15.625 g/ha / pest or weed control at 250 g/ha: read-out: Foxtail, Giant damage rating (100=total damage to plant; 0=no damage to plant); for pest or weed control at 62.5 g/ha: 62.5 g ai/ha, 100=total damage to plant, 0=no damage to plant, read-out: plant damage rating, Foxtail, Giant; for pest or weed control at 250 g/ha: 250 g ai/ha. The gist of the method:
as §1

In assay [3] the test system is ivy-leaved morning glory (Ipomoea hederacea). The conditions noted are these: Ipomoea, pre-emergence, 312 h, evaluated after 13 days; for pest or weed control at 15.625 g/ha: 15.625 g ai/ha, read-out: Morning-glory, Ivy-leaved damage rating (100=total damage to plant; 0=no damage to plant); for pest or weed control at 62.5 g/ha: 62.5 g ai/ha, 100=total damage to plant, 0=no damage to plant, read-out: plant damage rating, Morningglory, Ivy-leaved; for pest or weed control at 250 g/ha: 250 g ai/ha, read-out: Morningglory, Ivy-leaved damage rating (100=total damage to plant; 0=no damage to plant). The gist of the method:
as §1

Assay [4] concerns redroot pigweed (Amaranthus retroflexus). The note with it: Amaranthus retroflexus, pre-emergence, 312 h, evaluated after 13 days; for pest or weed control at 15.625 g/ha: 15.625 g ai/ha; for pest or weed control at 15.625 g/ha / pest or weed control at 250 g/ha: read-out: Pigweed, Redroot damage rating (100=total damage to plant; 0=no damage to plant); for pest or weed control at 62.5 g/ha: 62.5 g ai/ha, 100=total damage to plant, 0=no damage to plant, read-out: plant damage rating, Pigweed, Redroot; for pest or weed control at 250 g/ha: 250 g ai/ha. The gist of the method:
as §1

Assay [5] relates to velvetleaf (Abutilon theophrasti). The conditions noted are these: Abutilon theophrasti, pre-emergence, 312 h, evaluated after 13 days; for pest or weed control at 15.625 g/ha: 15.625 g ai/ha; for pest or weed control at 15.625 g/ha / pest or weed control at 250 g/ha: read-out: Velvetleaf damage rating (100=total damage to plant; 0=no damage to plant); for pest or weed control at 62.5 g/ha: 62.5 g ai/ha, 100=total damage to plant, 0=no damage to plant, read-out: plant damage rating, Velvetleaf; for pest or weed control at 250 g/ha: 250 g ai/ha. The gist of the method:
as §1

In the case of `CN1C[C@@H](c2ccc(C(F)(F)F)cc2)[C@H](C(=O)Nc2ccno2)C1=O` (racemic) [Compound 1513], the pest or weed control at 15.625 g/ha in assay [1], in assay [2], in assay [3], in assay [4] and in assay [5] was 0% each time. The pest or weed control at 62.5 g/ha in assay [1], in assay [2], in assay [3], in assay [4] and in assay [5] was 0% each time. Moreover, the pest or weed control at 250 g/ha in assay [1], in assay [2], in assay [3], in assay [4] and in assay [5] was 0% each time. Moreover, in the assay with corn (Zea mays), the plant injury at 15.625 g/ha was 0%. The plant injury at 62.5 g/ha in the assay on corn (Zea mays) was found to be 0%. The plant injury at 250 g/ha in the assay on corn (Zea mays) was found to be 0%.

As for `CN1C[C@@H](c2ccc(C(F)(F)F)cc2)[C@H](C(=O)Nc2cnccc2Cl)C1=O` (racemic) [Compound 1541], in assay [1], the pest or weed control at 15.625 g/ha stood at 0%, the pest or weed control at 62.5 g/ha stood at 0% and the pest or weed control at 250 g/ha was determined as 30%. Besides, in the assay on corn (Zea mays), the plant injury at 15.625 g/ha was found to be 0%, the plant injury at 62.5 g/ha amounted to 0% and the plant injury at 250 g/ha came to 10%. Besides, in assay [2], the pest or weed control at 15.625 g/ha was determined as 0%, the pest or weed control at 62.5 g/ha was found to be 0% and the pest or weed control at 250 g/ha is 70%. Further, in assay [3], the pest or weed control at 15.625 g/ha stood at 0%, the pest or weed control at 62.5 g/ha came to 0% and the pest or weed control at 250 g/ha was determined as 0%. Also, in assay [4], the pest or weed control at 15.625 g/ha stood at 0%, the pest or weed control at 62.5 g/ha stood at 0% and the pest or weed control at 250 g/ha was found to be 40%. Also, in assay [5], the pest or weed control at 15.625 g/ha worked out at 0%, the pest or weed control at 62.5 g/ha came to 0% and the pest or weed control at 250 g/ha is 0%.

Take `CN1C[C@H](c2ccc3c(c2)CCO3)[C@@H](C(=O)Nc2cccc(F)c2F)C1=O` (racemic) [Compound 1499]: the pest or weed control at 15.625 g/ha in assay [1], in assay [2], in assay [3] and in assay [5] was 0% throughout. Further, the pest or weed control at 62.5 g/ha in assay [1] came to 80%; in assay [2], 80%; in assay [3] it was 0%; in assay [4], 0%; in assay [5], 0%. The pest or weed control at 250 g/ha turned out to be 90% in assay [1]; 80% in assay [2]; 100% in assay [3]; 0% in assay [4]; 30% in assay [5]. Besides, the plant injury at 15.625 g/ha with corn (Zea mays) came out at 0%. The plant injury at 62.5 g/ha in the assay on corn (Zea mays) stood at 0%. For the same compound, the plant injury at 250 g/ha in the assay with corn (Zea mays) was 80%.

For the compound `CN1C[C@@H](c2ccc(C(F)(F)F)cc2)[C@H](C(=O)Nc2ccccc2)C1=O` (racemic) [Compound 1404], in assay [1], the pest or weed control at 15.625 g/ha stood at 0%, the pest or weed control at 62.5 g/ha stood at 20% and the pest or weed control at 250 g/ha was determined as 70%. Moreover, in the assay with corn (Zea mays), the plant injury at 15.625 g/ha amounted to 0%, the plant injury at 62.5 g/ha was 0% and the plant injury at 250 g/ha is 0%. In assay [2], the pest or weed control at 15.625 g/ha turned out to be 0%, the pest or weed control at 62.5 g/ha came out at 70% and the pest or weed control at 250 g/ha was 80%. Further, in assay [3], the pest or weed control at 15.625 g/ha amounted to 0%, the pest or weed control at 62.5 g/ha was 10% and the pest or weed control at 250 g/ha is 20%. Moreover, in assay [4], the pest or weed control at 15.625 g/ha stood at 0%, the pest or weed control at 62.5 g/ha came to 0% and the pest or weed control at 250 g/ha came out at 20%. In assay [5], the pest or weed control at 15.625 g/ha was 0%, the pest or weed control at 62.5 g/ha was 0% and the pest or weed control at 250 g/ha was found to be 0%.
